Measurements taken from US3962238A, “Ethers of n-propanol amine” (Centre Europeen de Recherches Mauvernay "CERM", priority 1972, dated 1976).
“Also recorded” adds a separate entry of the source. Counter-ions that a name gives are not always drawn.

Legend:
Assay type in all cases: in vivo
β-adrenergic receptors [1] = experiment: Action on the β-adrenergic receptors: inhibition of cardiovascular effects of isoprenaline in anaesthetised dogs; details: dog, compound 5 mg/kg intravenous
Experimental: (§1) A stimulating electrode was placed in position on the right stellar ganglion of dogs anaesthetised as described above and for which there were recorded:
(§2) a. The arterial pressure,
(§3) b. Ventricular inotropism (the amplitude of contraction of the right ventricle), and
(§4) c. The rate of heart-beat.
(§5) The chest of the animals were not open and they were breathing freely.
(§6) The β-adrenergic receptors, both cardiac and vascular, were stimulated by electrical stimulation of the right stellar ganglion or by intravenous injection with isoprenaline (5 μg/kg).

β-adrenergic receptors [2] = experiment: Action on the β-adrenergic receptors: inhibition of cardiac effects of stimulation of the right stellar ganglion in anaesthetised dogs; details: compound 5 mg/kg intravenous, average, dog
Experimental: It then seemed interesting, using compound No. 1, to seek the existence of an action on the β-adrenergic receptors in the manner outlined below:
as §1, §2, §3, §4, §5
as §6, with “μg/kg). The measurements were taken both before and after administration of compound No. 1 by the intravenous route in a dose of 5 mg/kg bodyweight.” for “μg/kg).”
The following Table III gives the average percentage inhibition of the cardiovascular effects of isoprenaline and of the cardiac effects of the stimulation of the right stellar ganglion.

[3] = Cardiovascular activity on the chloralose-anaesthetised, artificially respirated dog (coronary sinus output, Pv O2, contraction amplitude, arterial pressure, rate of heart-beat); details: for AMPLITUDE OF VENTRICULAR CONTRACTION / ARTERIAL PRESSURE / CORONARY OUTPUT / RATE OF HEART-BEAT / SINUSAL Pv O2: maximum percentage variation relative to pre-treatment values
Experimental: The pharmacological activity of the compounds of the invention in the cardiovascular field was determined on the dog in the manner described below:
An incision is made in the right-hand chest wall of an animal, which has been anaesthetised with chloralose and given artificial respiration, to enable the blood from the venus sinus to be drawn off and the apparatus required to record the following parameters to be inserted in position:
a. Output of the coronary sinus;
b. Pv O2 of the blood from the coronary sinus; and
c. Amplitude of the contractions of the right ventricule.
At the same there were also measured:
d. Arterial pressure in a main carotid artery: and
e. The rate of heart-beat determined cardiotachometrically.
Table II which follows records the determinations made of the various parameters, the results being expressed as a maximum percentage variation relative to the pre-treatment values.

[4] = isoprenaline 5 ug/kg intravenous, average

Compound: CC(C)COCC(CN1CCCC1)N(Cc1ccccc1)c1ccccc1 (centres unmarked) [Compound 1, 1-(3-isobutoxy-2-(phenylbenzyl)-amino)-propyl-pyrrolidino-hydrochloride]
- effect on stimulation of the β-adrenergic receptors (in words) (β-adrenergic receptors [1]; isoprenaline or right stellar ganglion stimulation, 5 mg/kg): partial inhibiting effect; also recorded: inhibiting effects with respect to the stimulation of the β-adrenergic receptors
- PERCENTAGE INHIBITION OF Hypotension (β-adrenergic receptors [1]; [4]): -54%
- PERCENTAGE INHIBITION OF Positive inotropic effect (β-adrenergic receptors [1]; [4]): -46.5%
- PERCENTAGE INHIBITION OF Rate of Heart-beat (β-adrenergic receptors [1]; [4]): -32.7%
- PERCENTAGE INHIBITION OF Positive inotropic effect (β-adrenergic receptors [2]): -21.3%
- PERCENTAGE INHIBITION OF Rate of Heart-beat (β-adrenergic receptors [2]): -30%
- AMPLITUDE OF VENTRICULAR CONTRACTION ([3]; 2.5 mg/kg intravenous): -0.7%
- ARTERIAL PRESSURE ([3]; 2.5 mg/kg intravenous): -39.8%
- CORONARY OUTPUT ([3]; 2.5 mg/kg intravenous): +51.2%
- RATE OF HEART-BEAT ([3]; 2.5 mg/kg intravenous): -28.6%
- SINUSAL Pv O2 ([3]; 2.5 mg/kg intravenous): +119.2%
- AMPLITUDE OF VENTRICULAR CONTRACTION ([3]; 5 mg/kg intravenous): -22.3%
- ARTERIAL PRESSURE ([3]; 5 mg/kg intravenous): -40.2%
- CORONARY OUTPUT ([3]; 5 mg/kg intravenous): +36.9%
- RATE OF HEART-BEAT ([3]; 5 mg/kg intravenous): -31.8%
- SINUSAL Pv O2 ([3]; 5 mg/kg intravenous): +120.8%
- oxygen content of the venous cardiac blood (in words) ([3]; intravenous): very considerable increase in the oxygen content of the venous cardiac blood
